# Laboratory results published in patent US20150105252A1, “SUBSTITUTED PYRAZOLES AS HERBICIDES” (E I DU PONT DE NEMOURS AND COMPANY, priority 2013, published 2015).
# Key:
# barnyardgrass [1] = experiment: Test A preemergence; format: in vivo, Echinochloa crus-galli; conditions: Preemergence, 1000 g ai/ha; 0 to 100 scale, 0 no effect, 100 complete control
# Method in brief: (§1)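 Growth medium: loam soil blended with sand. Preemergence treatment used a directed soil spray right after planting; postemergence treatment targeted seedlings at one to two leaves (2–10 cm height). Response was judged by eye relative to untreated plants about 10 days later on a 0–100 control scale.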
# crabgrass, large [2] = experiment: Test A preemergence; format: in vivo, Digitaria sanguinalis; conditions: Preemergence, 1000 g ai/ha; 0 to 100 scale, 0 no effect, 100 complete control
# Method in brief: as §1
# foxtail, giant [3] = experiment: Test A preemergence; format: in vivo, Setaria faberii; conditions: Preemergence, 1000 g ai/ha; 0 to 100 scale, 0 no effect, 100 complete control
# Method in brief: as §1
# morningglory [4] = experiment: Test A preemergence; format: in vivo, Ipomoea spp.; conditions: Preemergence, 1000 g ai/ha; 0 to 100 scale, 0 no effect, 100 complete control
# Method in brief: as §1
# pigweed [5] = experiment: Test A preemergence; format: in vivo, Amaranthus retroflexus; conditions: Preemergence, 1000 g ai/ha; 0 to 100 scale, 0 no effect, 100 complete control
# Method in brief: as §1
# velvetleaf [6] = experiment: Test A preemergence; format: in vivo, Abutilon theophrasti; conditions: Preemergence, 1000 g ai/ha; 0 to 100 scale, 0 no effect, 100 complete control
# Method in brief: as §1
# wheat [7] = experiment: Test A preemergence; format: in vivo, Triticum aestivum
# Method in brief: as §1
# corn [8] = experiment: Test A preemergence; format: in vivo, Zea mays; conditions: Preemergence, 1000 g ai/ha; 0 to 100 scale, 0 no effect, 100 complete control
# Method in brief: as §1
# barnyardgrass [9] = experiment: Test A postemergence; format: in vivo, Echinochloa crus-galli; conditions: Postemergence, 1000 g ai/ha; visual rating after approx. 10 days, 0 to 100 scale (0 no effect, 100 complete control)
# Method in brief: as §1
# crabgrass, large [10] = experiment: Test A postemergence; format: in vivo, Digitaria sanguinalis; conditions: Postemergence, 1000 g ai/ha; visual rating after approx. 10 days, 0 to 100 scale (0 no effect, 100 complete control)
# Method in brief: as §1
# foxtail, giant [11] = experiment: Test A postemergence; format: in vivo, Setaria faberii; conditions: Postemergence, 1000 g ai/ha; visual rating after approx. 10 days, 0 to 100 scale (0 no effect, 100 complete control)
# Method in brief: as §1
# morningglory [12] = experiment: Test A postemergence; format: in vivo, Ipomoea spp.; conditions: Postemergence, 1000 g ai/ha; visual rating after approx. 10 days, 0 to 100 scale (0 no effect, 100 complete control)
# Method in brief: as §1
# pigweed [13] = experiment: Test A postemergence; format: in vivo, Amaranthus retroflexus; conditions: Postemergence, 1000 g ai/ha; visual rating after approx. 10 days, 0 to 100 scale (0 no effect, 100 complete control)
# Method in brief: as §1
# velvetleaf [14] = experiment: Test A postemergence; format: in vivo, Abutilon theophrasti; conditions: Postemergence, 1000 g ai/ha; visual rating after approx. 10 days, 0 to 100 scale (0 no effect, 100 complete control)
# Method in brief: as §1
# wheat [15] = experiment: Test A postemergence; format: in vivo, Triticum aestivum; conditions: Postemergence, 1000 g ai/ha; visual rating after approx. 10 days, 0 to 100 scale (0 no effect, 100 complete control)
# Method in brief: as §1
# corn [16] = experiment: Test A postemergence; format: in vivo, Zea mays; conditions: Postemergence, 1000 g ai/ha; visual rating after approx. 10 days, 0 to 100 scale (0 no effect, 100 complete control)
# Method in brief: as §1
# [17] = Preemergence, 1000 g ai/ha, 0 to 100 scale, 0 no effect, 100 complete control
# [18] = preemergence, 500 g ai/ha, visual injury after approx. 10 days, 0 to 100 scale (0 no effect, 100 complete control)
SMILES,Barnyardgrass plant response rating (barnyardgrass [1]),"Crabgrass, Large plant response rating (crabgrass, large [2])","Foxtail, Giant plant response rating (foxtail, giant [3])",Morningglory plant response rating (morningglory [4]),Pigweed plant response rating (pigweed [5]),Velvetleaf plant response rating (velvetleaf [6]),Wheat plant response rating (wheat [7]; [17]),Corn plant response rating (corn [8]),Barnyardgrass plant response rating (barnyardgrass [9]),"Crabgrass, Large plant response rating (crabgrass, large [10])","Foxtail, Giant plant response rating (foxtail, giant [11])",Morningglory plant response rating (morningglory [12]),Pigweed plant response rating (pigweed [13]),Velvetleaf plant response rating (velvetleaf [14]),Wheat plant response rating (wheat [15]),Corn plant response rating (corn [16]),Wheat plant response rating (wheat [7]; [18])
CCc1cc(C(=O)NC)nn1Cc1cccc(C(F)(F)F)c1 [Compound 45],10,20,20,10,10,0,0,0,10,40,70,90,60,30,10,20,–
CCc1cc(C(=O)NCC(C)(C)C)nn1Cc1cccc(C(F)(F)F)c1 [Compound 46],10,10,20,20,0,0,0,0,10,30,60,70,40,70,20,20,–
CCc1cc(C(=O)NCCOC)nn1Cc1cccc(C(F)(F)F)c1 [Compound 48],10,10,10,20,0,0,0,0,10,10,20,50,10,10,0,30,–
CCc1cc(C(=O)NCC(C)C)nn1Cc1cccc(C(F)(F)F)c1 [Compound 49],30,90,100,30,50,0,0,0,20,30,100,100,50,50,30,30,–
CCCCNC(=O)c1cc(CC)n(Cc2cccc(C(F)(F)F)c2)n1 [Compound 52],10,50,70,30,30,10,0,0,20,30,30,40,50,40,30,30,–
CCc1cc(C(=O)NCCC(F)(F)F)nn1Cc1cccc(OC(F)(F)F)c1 [Compound 55],10,100,90,20,80,10,0,0,10,50,50,100,70,90,10,20,–
CCc1cc(C(=O)N(C)C)nn1Cc1cccc(OC(F)(F)F)c1 [Compound 56],0,0,10,0,0,0,0,0,0,10,20,70,60,10,0,10,–
CCc1cc(C(=O)NCCOC)nn1Cc1cccc(OC(F)(F)F)c1 [Compound 57],10,20,90,10,10,0,0,0,10,10,10,60,50,30,0,40,0
CCCCNC(=O)c1cc(CC)n(Cc2cccc(OC(F)(F)F)c2)n1 [Compound 62],10,40,60,20,20,10,0,0,10,20,30,80,70,70,20,50,0
